Measured values published in patent publication US9260760B2, “Method for determining complete response to anticancer therapy” (Board of Regents, The University of Texas System, priority 2012, dated 2016).
“And” between values parts separate entries of the source, which are not always exact repeats. Identical values can stand only once.

Experiments:
[1] = Study 2: treatment-related toxicity of XCEL (CTCAE version 3.0); format: in vivo, human
Protocol: This retrospective study was approved by the institutional review board of The University of Texas M. D. Anderson Cancer Center. All sixty-six patients received concurrent capecitabine (Xeloda, Roche Nutley, N.J.) at mean daily dose 1000 mg/m^2/d bid for 14 days every 21 days or Monday-through Friday with radiation with daily celecoxib (CELEBREX®, Pfizer, N.Y.) at 200 mg PO b.i.d. from October 2000 to December 2003.
All patients were subjected to routine clinical examinations, laboratory analyses, and computed tomography before receiving XCEL described previously. All patient data were to be independently audited and radiographic images depicting CR were reviewed and agreed upon by two independent radiologists. All 19 patients had pathological confirmation of metastatic cancer ( ). Treatment-related toxicity was graded using the National Institutes of Health's Common Terminology Criteria for Adverse Events, version 3.0. Tumor responses were evaluated using RECIST criteria with complete response defined as complete radiographic disappearance of measurable or evaluable disease and normalization of tumor marker. The death date was ascertained by searching (ssdi.genealogy.rootsweb.com) using social security numbers. The cutoff point for collection of survival was October 2005.

[2] = tested on: metastatic colorectal cancer; assay: Study 2: complete responders to XCEL; CR duration, PFS, OS, relapse; format: in vivo, human
From the text: This retrospective study was approved by the institutional review board of The University of Texas M. D. Anderson Cancer Center. […] All patients were subjected to routine clinical examinations, laboratory analyses, and computed tomography before receiving XCEL described previously. All patient data were to be independently audited and radiographic images depicting CR were reviewed and agreed upon by two independent radiologists. All 19 patients had pathological confirmation of metastatic cancer ( ). Treatment-related toxicity was graded using the National Institutes of Health's Common Terminology Criteria for Adverse Events, version 3.0. Tumor responses were evaluated using RECIST criteria with complete response defined as complete radiographic disappearance of measurable or evaluable disease and normalization of tumor marker. The death date was ascertained by searching (ssdi.genealogy.rootsweb.com) using social security numbers. The cutoff point for collection of survival was October 2005. Continuous variables were summarized using the mean (±standard deviation) or the median (range). Categorical variables were summarized in frequency tables. Comparisons of important subgroups for these variables were made using the chi-square test or Fisher's exact test, as appropriate. Time to complete response was defined as time to start XCEL therapy to first documented radiographic complete response. Duration of complete response was defined as time to first CR to first recurrence or death. […] Patients were censored at the date of last follow-up if they had not progressed or died. Progression-free and overall survival distributions were summarized using the method of Kaplan and Meier. All response rates, progression-free survival and overall survival were calculated based on the 95% confidence interval (CI). Event chart was created using symbolized events versus time descriptively.

## Cc1ccc(-c2cc(C(F)(F)F)nn2-c2ccc(S(N)(=O)=O)cc2)cc1 [XCEL]
[1]; compliant patients
  mean peak MCV increase before and after XCEL: 10
[1]; in vivo
  Hematologic toxicities: limited to grade 1 neutropenia and thrombocytopenia
  grade ½ HFS: 28%
  grade ½ diarrhea: 44%
  grade ¾ lymphopenia: 28%
[1]; range 5-20
  Median increase in mean corpuscular volume (MCV) before and after XCEL: 10
[2]; all (eight relapses)
  relapse: 41%
[2]; all nine patients with elevated CEA
  carcinoma embryonic antigen level: normalization of CEA
[2]; all patients
  Five-year OS: 64%
  Five-year PFS from XCEL: 57%
  median OS: 54 months
[2]; first-line responders
  CR rate: 90%
[2]; in vivo
  first-line responders who achieved CR: Eight of nine
  median time to CR: 6.5 months
  median time to relapse from CR date: 14 months
[2]; none-surgical group / unresected CR patients
  Five-year PFS from XCEL: 71% and 70%
[2]; none-surgical patients / unresected CR patients
  Five-year OS: 92%
[2]; one patient
  confirmed pathological CR: 5%
[2]; resected patients
  median duration of CR: 13 months
  relapse: 67%
[2]; retroperitoneal nodal metastasis, with radiation
  CR rate: 50%
[2]; six of 14 patients, median follow-up of 36 months
  patients who discontinued XCEL and remained in CR: 43%
[2]; unresected patients
  median duration of CR: not reached
  relapse: 29%
  sustained CR rate: 70%
[2]; unresected patients, carcinomatosis
  CR site: 21%
[2]; unresected patients, liver
  CR site: 36%
[2]; unresected patients, nodal disease
  CR site: 43%
